Laboratory results reported in PubChem BioAssay (NCI).
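A five-concentration, 48-hour dose response in 96-well plates underlies each endpoint, interpolated linearly between surrounding concentrations. GI50: concentration for 50% inhibition of growth. TGI marks complete inhibition of growth.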

Tests used:
Test in all cases: NCI tumour cell line growth inhibition, 48 h
[1] = system: NCI-H23 lung
[2] = system: HOP-92 NSCLC
[3] = system: DLD-1 colon
[4] = system: HCT-15 colon
[5] = system: KM12 colon
[6] = system: LXFL 529 NSCLC
[7] = system: SK-MEL-2 melanoma
[8] = system: DU-145 prostate
[9] = system: MCF7 breast
[10] = system: NCI/ADR-RES ovarian

| Structure (SMILES) | TGI [1] [µM] | TGI [2] [µM] | TGI [3] [µM] | TGI [4] [µM] | TGI [5] [µM] | TGI [6] [µM] | TGI [7] [µM] | GI50 [8] [µM] | TGI [8] [µM] | TGI [9] [µM] | TGI [10] [µM] | GI50 [1] [µM] | GI50 [2] [µM] | GI50 [4] [µM] | GI50 [9] [µM] | GI50 [5] [µM] | GI50 [7] [µM] | GI50 [10] [µM] |
| --- | --- | --- | --- | --- | --- | --- | --- | --- | --- | --- | --- | --- | --- | --- | --- | --- | --- | --- |
| Brc1ccccc1C1SCc2nc3ccccc3n21 (centres undefined) | 33.3 | 26.8 | 26.7 | 25.4 | 43.4 | 77.9 | 32.5 |  |  |  |  |  |  |  |  |  |  |  |
| O=c1cc(-c2ccccc2)oc2cc(OCCCOc3ccc4c(=O)cc(-c5ccccc5)oc4c3)ccc12 | > 100 | > 100 | > 100 | > 100 | > 100 | > 100 | > 100 |  |  |  |  |  |  |  |  |  |  |  |
| CCOC(=O)NC(=O)c1cn(CCCO)c(=O)[nH]c1=O | > 100 | > 100 | > 100 | > 100 | > 100 |  | > 100 |  |  |  |  |  |  |  |  |  |  |  |
| Nc1ncnc2c1nnn2C1OC(CO)C(O)C1O (centres undefined) | 10.8 | 7 | 25.5 | 20.6 | 6.68 |  | 1.74 | 0.144 | 1.91 | 16.8 | 9.32 |  |  |  |  |  |  |  |
| CCOC(=O)CC(=O)ON(C)C(C)=O | > 100 |  | > 100 | > 100 | > 100 | > 100 | > 100 |  |  |  |  |  |  |  |  |  |  |  |
| Cc1ccc(NC(=O)c2cc3cc(N=Nc4ccccc4C(=O)O)ccc3oc2=O)cc1 | > 100 |  | > 100 | > 100 | > 100 |  |  |  |  |  |  |  |  |  |  |  |  |  |
| CCOC(=O)C(=C=C=C(c1ccccc1)c1ccccc1)C(=O)OCC | > 100 | 31.3 | 40.7 | 49.1 | 46.1 | 31.4 | 36.9 |  |  |  |  |  |  |  |  |  |  |  |
| CCN1c2ccccc2C(C(SC)S(=O)(=O)c2ccc(C)cc2)c2c1[nH]c(=O)n(C)c2=O (centres undefined) | > 100 | > 100 | > 100 | > 100 | > 100 | > 100 | > 100 |  |  |  |  |  |  |  |  |  |  |  |
| CCc1cc(Cc2cc(CC)c(NC(=O)C(=O)Cc3ccccn3)c(CC)c2Cl)c(Cl)c(CC)c1NC(=O)C(=O)Cc1ccccn1 | > 100 | > 100 | > 100 | > 100 | > 100 | > 100 | > 100 |  |  |  |  |  |  |  |  |  |  |  |
| COC(OC)C(C)CC(=O)N(C)C (centres undefined) |  | > 100 | > 100 | > 100 | > 100 | > 100 | > 100 |  |  |  |  |  |  |  |  |  |  |  |
| Clc1ccc(C(c2ccc(Cl)cc2)c2ccccn2)cc1 | > 100 | 30.1 | 83.5 | 38 | 42.5 | 35.3 | 35 |  |  |  |  |  |  |  |  |  |  |  |
| CC(=O)OC1COC(n2ccc3cc(Br)c([N+](=O)[O-])cc32)C(OC(C)=O)C1OC(C)=O (centres undefined) | 61.3 | 42 | > 100 | > 100 | > 100 | > 100 |  |  |  |  |  |  |  |  |  |  |  |  |
| Cn1cnc([N+](=O)[O-])c1Sc1nc2ccccc2[nH]1 | 48.4 | 40.8 | 22.2 | 33.1 | 48.4 | 20.1 |  |  |  |  |  |  |  |  |  |  |  |  |
| C/C(=N\NC(=S)NC(CCC(=O)O)C(=O)O)c1ccccn1 (centres undefined) | > 100 | > 100 | > 100 | > 100 | > 100 | > 100 | > 100 |  |  |  |  |  |  |  |  |  |  |  |
| CC(=O)/C(=C\c1cccc([N+](=O)[O-])c1)C(=O)Nc1ccccc1C | > 100 | > 100 | > 100 | > 100 | > 100 | > 100 | > 100 |  |  |  |  |  |  |  |  |  |  |  |
| C#CC1(O)CCC2C3CCc4cc(Oc5nc(F)nc(-c6c7ccccc7c7sc8ccccc8n67)n5)ccc4C3CC[C@@]21C (some centres undefined) | > 100 | > 100 | > 100 | > 100 | > 100 | > 100 | > 100 |  |  |  |  |  |  |  |  |  |  |  |
| CC(C)=Cc1cc(C(=O)Nc2ccc(Cl)c(Cl)c2)nc(N)n1 | > 100 | > 100 | > 100 | > 100 | > 100 | > 100 | > 100 |  |  |  |  |  |  |  |  |  |  |  |
| COc1cc2c3c(n(C)c(=O)c2cc1OC)-c1cc2c(cc1/C3=C\CCCN)OCO2 | > 100 | 7.22 |  | 15.5 | 84.8 |  | 45 | 5.57 | 54.1 | 42.8 | 74.4 | 8.07 | 0.696 | 3.18 | 3.95 | 11 | 16.6 | 14.5 |
| CC(C)OP(=O)(OC(C)C)C(=NCCN=C(NNc1ccc([N+](=O)[O-])cc1)P(=O)(OC(C)C)OC(C)C)NNc1ccc([N+](=O)[O-])cc1 | 5.23 | 8.82 | > 100 | > 100 | > 100 | > 100 | 53 |  |  |  |  |  |  |  |  |  |  |  |
| Cn1c2ccccc2c2cc(-c3ccccc3)c3c(c21)C(=O)c1ccccc1C3=O | 22.8 | 26.3 | 31 |  | 75.8 | 29.3 | 43.4 |  |  |  |  |  |  |  |  |  |  |  |
| O=C(/C=C/c1ccncc1)c1cc(Cl)ccc1O | 38.8 | 19.6 |  | 63.8 | 32.5 |  | 37.8 | 17.4 | 31.5 | 27.7 | 66.4 | 17.2 | 4.65 | 22.4 | 13.1 | 15.7 | 19.7 | 22.7 |
| COc1ccc(/C=C(/C#N)n2nnc3cccc(F)c32)cc1 | 6.3 | 3.23 |  | > 100 | 4.54 |  | 21.9 | 1.36 | 4.67 | > 100 | 3.37 | 1.23 | 0.546 | 0.401 | 0.524 | 0.519 | 0.653 | 0.371 |
| CN1CCN(CCCn2c(=O)c3sc4ncccc4c3n3nnc(-c4ccccc4)c23)CC1 | 15.3 | 12.9 |  | 13.2 | 10.7 |  | 16.7 | 5.85 | 12.2 | 15 | 14.2 | 8.07 | 5.8 | 6.19 | 7.69 | 4.24 | 8.8 | 7.19 |
| COc1cc(NCc2ccc3oc(=O)c(-c4ccccc4)nc3c2)cc(OC)c1OC | > 10 | > 10 |  | > 10 | > 10 |  | > 10 |  | > 10 | > 10 | > 10 |  |  |  |  |  |  |  |
